Measured values from paper PMC8179178 (Chemical Science, 2021).
pIC50: −log10 of the molar value. ≈ marks a conversion by molar mass, not a printed value. Where a name gives a salt, the structure may show the parent alone.

Legend:
rats = details: given over 22 days; cited from earlier work
Solubility in PBS = assay type: physicochemical; details: aqueous buffer
MC38 cells = experiment: MTT cell proliferation assay; assay type: cell-based, murine; details: Mus musculus, MC-38, read-out: Cytotoxicity (IC50)

SMILES	Multi-dose MTD of conventional Dox (rats)	solubility (Solubility in PBS)	pIC50 (MC38 cells)
COc1cccc2c1C(=O)c1c(O)c3c(c(O)c1C2=O)C[C@@](O)(C(=O)CO)C[C@@H]3O[C@H]1C[C@H](N)[C@H](O)[C@H](C)O1 [Dox HCl, doxorubicin]	10 mg/kg	3800 µg/mL	7.64
COc1cc([C@@H]2c3cc4c(cc3[C@@H](O[C@@H]3O[C@@H]5CO[C@@H](C)O[C@H]5[C@H](O)[C@H]3O)[C@H]3COC(=O)[C@H]23)OCO4)cc(OC)c1O [ETP, etoposide]	–	2800 µg/mL (≈ 4.76 mM)	6.80
Nc1ccn([C@@H]2O[C@H](CO)[C@@H](O)C2(F)F)c(=O)n1 [GCB HCl, gemcitabine]	–	–	8.52
CC(=O)O[C@H]1C(=O)[C@@]2(C)[C@H]([C@H](OC(=O)c3ccccc3)[C@]3(O)C[C@H](OC(=O)[C@H](O)[C@@H](NC(=O)c4ccccc4)c4ccccc4)C(C)=C1C3(C)C)[C@]1(OC(C)=O)CO[C@@H]1C[C@@H]2O [PTX, paclitaxel]	–	–	7.49
